Results taken from patent EP0086647A2, “Pyrimidone compounds, their preparation, and pharmaceutical compositions containing them” (YAMANOUCHI PHARMACEUTICAL CO. LTD., priority 1982, dated 1983).
Structures can show the parent of a compound that is named as a salt.

What was measured:
gastric acid secretion = test: Acid inhibition, Shay (4hr.) / (Dog), results table; type: in vivo
[1] = Cytoprotective action (animal experiment methods, not described); type: in vivo; design: key: *: These compounds also have cytoprotective action

Which “Acid Inhibition Shay(4hr.) (mg./kg.) (Dog)” value (gastric acid secretion; dose 3mg (mg./kg.)) does the source give for `CCN(CC)CCCc1c(C)[nH]c(CCSCc2csc(N=C(N)N)n2)nc1=O` [Example 17, 2-(2-[[[2-((diaminomethylene)amino)-4-t:hiazolyl]methyl]-thio]ethyl]-5-(3-diethylaminopropyl)-6-methyl-4(1H)-pyrimidone tri-hydrochloride] here?
The value was 83%(3mg).

Which “Acid Inhibition Shay(4hr.) (mg./kg.) (Dog)” value (gastric acid secretion; dose 0.1mg (mg./kg.)) does the source give for `CCc1c(C)[nH]c(CCSCc2csc(N=C(N)N)n2)nc1=O` [Example 27, 2-[2-[[[2-[(diaminomethylene)amino)-4-thiazolyl]methyl]thio]-ethyl]-5-ethyl-6-methyl-4(1H)-pyrimidone] here?
The value was 90%(0.1mg).

For `CCCc1c(C)[nH]c(CCSCc2csc(N=C(N)N)n2)nc1=O` [Example 28], which “Acid Inhibition Shay(4hr.) (mg./kg.) (Dog)” value (gastric acid secretion; dose 0.1mg (mg./kg.)) is on record?
Its value is 60%(0.1mg).

For `C#CCc1c(C)[nH]c(CCSCc2csc(N=C(N)N)n2)nc1=O` [Example 29, 2-[2-[[[2-[(diaminomethylene)amino]-4-thiazolyl]methyl]thio]-ethyl]-6-methyl-5-(2-propinyl)-4(1H)-pyrimidone], which “Acid Inhibition Shay(4hr.) (mg./kg.) (Dog)” value (gastric acid secretion; dose 0.1mg (mg./kg.)) is on record?
Its value is 95%(0.1mg).

Which cytoprotective action [1] does the source give for `CCCCc1c(C)[nH]c(CCSCc2csc(N=C(N)N)n2)nc1=O` [Example 30, 2-[2-[[[2-[(diaminomethylene)amino]-4-thiazolyl]methyl]thio]-ethyl]-5-n-butyl-6-methy-1-4(1H)-pyrimidone di-hydrochloride] here?
The cytoprotective action was “R=butyl*”.

What about the “Acid Inhibition Shay(4hr.) (mg./kg.) (Dog)” value (gastric acid secretion; dose 0.1mg (mg./kg.)) of the same compound?
Its value is 70%(0.1mg).

For `CCCCCc1c(C)[nH]c(CCSCc2csc(N=C(N)N)n2)nc1=O.Cl.Cl` [Example 31, 2-[2-[[[2-[(diaminomethylene)amino]-4-thiazolyl]methyl]thio]-ethyl]-6-methyl-5-n-pentyl-4(1H)-pyrimidone di-hydrochloride], which cytoprotective action [1] is on record?
The cytoprotective action was “R=amyl*”.

What about the “Acid Inhibition Shay(4hr.) (mg./kg.) (Dog)” value (gastric acid secretion; dose 0.1mg (mg./kg.)) of the same compound?
The value was 95%(0.1mg).

Which cytoprotective action [1] does the source give for `Cc1[nH]c(CCSCc2csc(N=C(N)N)n2)nc(=O)c1CCC(C)C` [Example 32, 2-[2-[[[2-[(diaminomethylene)amino]-4-thiazolyl]methyl]thio]-ethyl)-6-methyl-5-(3-methylbutyl)-4(lH)-pyrimidone di-hydrochloride] here?
The cytoprotective action was “R=iso-amyl*”.
